Measured values as given in patent US10206394B2, “Herbicidal compounds” (Syngenta Participations AG, priority 2014, dated 2019).
Like-named read-outs stand apart in the source and are kept apart here.

Experiments:
Experiment in all cases: Glasshouse assay for herbicidal activity (pre- and post-emergence), percentage phytotoxicity
Assay type in all cases: in vivo
[1] = tested on: Avena fatua (AVEFA); conditions: Avena fatua
Summary of the method: (§1)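 Damage was rated visually as percent phytotoxicity, 100% meaning total kill, 20 days after pre-emergence application (made one day post-sowing) or 15 days after post-emergence application (made about 12 days post-sowing). Plants were grown under 16 h light, 65% humidity, warm species 24/18° C, cool 20/16° C.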

[2] = tested on: Lolium perenne (LOLPE); conditions: Lolium perenne
Summary of the method: as §1

[3] = tested on: Alopecurus myosuroides (ALOMY); conditions: Alopecurus myosuroides
Summary of the method: as §1

[4] = tested on: Echinochloa crus-galli (ECHCG); conditions: Echinochloa crus-galli
Summary of the method: as §1

[5] = post-emergence, 360 h, Rate 250 g/ha, post-emergence, assessed visually 15 DAA, 100%=total damage, 0%=no damage, read-out: Post-emergence herbicidal activity (percentage phytotoxicity) AVEFA POST
[6] = pre-emergence, 480 h, Rate 250 g/ha, pre-emergence, assessed visually 20 DAA, 100%=total damage, 0%=no damage, read-out: Pre-emergence herbicidal activity (percentage phytotoxicity) AVEFA PRE
[7] = post-emergence, 360 h, Rate 250 g/ha, post-emergence, assessed visually 15 DAA, 100%=total damage, 0%=no damage, read-out: Post-emergence herbicidal activity (percentage phytotoxicity) LOLPE POST
[8] = pre-emergence, 480 h, Rate 250 g/ha, pre-emergence, assessed visually 20 DAA, 100%=total damage, 0%=no damage, read-out: Pre-emergence herbicidal activity (percentage phytotoxicity) LOLPE PRE
[9] = post-emergence, 360 h, Rate 250 g/ha, post-emergence, assessed visually 15 DAA, 100%=total damage, 0%=no damage, read-out: Post-emergence herbicidal activity (percentage phytotoxicity) ALOMY POST
[10] = pre-emergence, 480 h, Rate 250 g/ha, pre-emergence, assessed visually 20 DAA, 100%=total damage, 0%=no damage, read-out: Pre-emergence herbicidal activity (percentage phytotoxicity) ALOMY PRE
[11] = post-emergence, 360 h, Rate 250 g/ha, post-emergence, assessed visually 15 DAA, 100%=total damage, 0%=no damage, read-out: Post-emergence herbicidal activity (percentage phytotoxicity) ECHCG POST
[12] = pre-emergence, 480 h, Rate 250 g/ha, pre-emergence, assessed visually 20 DAA, 100%=total damage, 0%=no damage, read-out: Pre-emergence herbicidal activity (percentage phytotoxicity) ECHCG PRE

Compound	pest or weed control at 250 g/ha [1, 5] [%]	pest or weed control at 250 g/ha [1, 6] [%]	pest or weed control at 250 g/ha [2, 7] [%]	pest or weed control at 250 g/ha [2, 8] [%]	pest or weed control at 250 g/ha [3, 9] [%]	pest or weed control at 250 g/ha [3, 10] [%]	pest or weed control at 250 g/ha [4, 11] [%]	pest or weed control at 250 g/ha [4, 12] [%]	pest or weed control at 250 g/ha ([1]; post-emergence, 360 h, 250 g/ha, post-emergence, 15 DAA, visual assessment (100%=total damage, 0%=no damage), read-out: Post-emergence herbicidal activity (percentage phytotoxicity) AVEFA POST) [%]	pest or weed control at 250 g/ha ([1]; pre-emergence, 480 h, 250 g/ha, pre-emergence, 20 DAA, visual assessment (100%=total damage, 0%=no damage), read-out: Pre-emergence herbicidal activity (percentage phytotoxicity) AVEFA PRE) [%]	pest or weed control at 250 g/ha ([2]; post-emergence, 360 h, 250 g/ha, post-emergence, 15 DAA, visual assessment (100%=total damage, 0%=no damage), read-out: Post-emergence herbicidal activity (percentage phytotoxicity) LOLPE POST) [%]	pest or weed control at 250 g/ha ([2]; pre-emergence, 480 h, 250 g/ha, pre-emergence, 20 DAA, visual assessment (100%=total damage, 0%=no damage), read-out: Pre-emergence herbicidal activity (percentage phytotoxicity) LOLPE PRE) [%]	pest or weed control at 250 g/ha ([3]; post-emergence, 360 h, 250 g/ha, post-emergence, 15 DAA, visual assessment (100%=total damage, 0%=no damage), read-out: Post-emergence herbicidal activity (percentage phytotoxicity) ALOMY POST) [%]	pest or weed control at 250 g/ha ([3]; pre-emergence, 480 h, 250 g/ha, pre-emergence, 20 DAA, visual assessment (100%=total damage, 0%=no damage), read-out: Pre-emergence herbicidal activity (percentage phytotoxicity) ALOMY PRE) [%]	pest or weed control at 250 g/ha ([4]; post-emergence, 360 h, 250 g/ha, post-emergence, 15 DAA, visual assessment (100%=total damage, 0%=no damage), read-out: Post-emergence herbicidal activity (percentage phytotoxicity) ECHCG POST) [%]	pest or weed control at 250 g/ha ([4]; pre-emergence, 480 h, 250 g/ha, pre-emergence, 20 DAA, visual assessment (100%=total damage, 0%=no damage), read-out: Pre-emergence herbicidal activity (percentage phytotoxicity) ECHCG PRE) [%]
CCCCNC(=O)CC1CC(=O)C(c2c(C)cc(-c3ncc(Cl)cc3F)cc2C)C1=O (stereo not drawn) [Compound A44]	100	100	100	100	100	100	100	100	–	–	–	–	–	–	–	–
CC#Cc1cc(C)c(C2C(=O)CC(CC(=O)NC(C)C)C2=O)c(C)c1 (stereo not drawn) [Compound A8, 2-[3-(2,6-dimethyl-4-prop-1-ynyl-phenyl)-2,4-dioxo-cyclopentyl]-N-isopropyl-acetamide]	100	100	100	100	100	100	100	100	–	–	–	–	–	–	–	–
Cc1cc(-c2ncc(Cl)cc2F)cc(C)c1C1C(=O)CC(CC(=O)NCc2cccc(Cl)c2)C1=O (stereo not drawn) [Compound A117]	100	70	100	90	90	70	100	100	–	–	–	–	–	–	–	–
Cc1cc(C)c(C2C(=O)CC(CC(=O)NCc3ccoc3)C2=O)c(C)c1 (stereo not drawn) [Compound A99]	30	0	70	20	60	20	0	0	–	–	–	–	–	–	–	–
Cc1cc(-c2ncc(Cl)cc2F)cc(C)c1C1C(=O)CC(CC(=O)NCc2ccc(C(F)(F)F)nc2)C1=O (stereo not drawn) [Compound A115]	100	90	100	90	100	90	100	90	–	–	–	–	–	–	–	–
C=C(Cl)CNC(=O)CC1CC(=O)C(c2c(C)cc(C)cc2C)C1=O (stereo not drawn) [Compound B133]	–	–	–	–	–	–	–	–	60	0	90	100	50	80	50	80
